Values of other authors in patent US8877792B2, “Compositions for increasing solubility of azole drug compounds that are poorly soluble in water” (Dow Pharmaceutical Sciences, Inc., priority 2008, dated 2014).

Details: background statement, cited from earlier work

## Cc1ncc([N+](=O)[O-])n1CCO [Metronidazole, metronidazole]
Room temperature
  aqueous solubility of metronidazole in water: about 0.87 % w/w
Solutions that can withstand cold temperatures encountered during shipping
  limit of metronidazole concentration for physically stable solutions in water: about 0.7 % w/w
